Data published in patent publication US7638320B2, “Bengamide derivatives, process for preparing them, and their use” (sanofi-aventis Deutschland GmbH, priority 2003, dated 2009).
Read-outs that look alike come from different tables or passages of the source.

Columns and labels:
[1] = system: Hep-G2 (ATCC No. HB-8065) tumor cell line; test: Cell proliferation test (intracellular ATP, CellTiterGlo) on Hep-G2; format: cell-based; conditions: read-out: Activity in a cell proliferation test, expressed as TC50 value, Hep-G2
Experimental: (§1) A test which is based on determining the intracellular concentration of ATP is employed for detecting the inhibition of cell proliferation. It is possible to use known tumor cell lines such as Hep-G2 and Colo205. In this test, the ATP content of metabolically active cells serves, in a luciferase reaction, as a measure of the number of living cells.
(§2) The compounds of the formula (II)-(VI) were used in the test in a single dose of 0.3-40 μM and a dose dependency given as a TC50 value, with (IIA) and (IIB) in each case denoting a diastereomer of the compound of the formula (II): […]
(§3) The tumor cell lines Hep-G2 (ATCC No. HB-8065) and COLO 205 (ATCC No. CCL-222) were used for determining the cell proliferation. The cell lines were sown in cell culture medium at the rate of 1000 cells/well [Hep-G2] and, respectively, 3500 cells/well [Colo205] and incubated for 4 hours at 37° C. and 5% CO2.
Medium for Hep-G2: Dulbecco's modified Eagle's medium/Ham's F12 mix (Gibco); NEAA (10%; nonessential amino acids, Gibco), sodium pyruvate (1%, Gibco), L-glutamine (1%, Gibco), fetal calf serum (5%; PAA)].
(§4) After 4 hours, compounds (II), (III) and (IV) and bengamides E and F, dissolved in DMSO/cell culture medium, were added at various dilutions and the mixtures were incubated for 72 hours at 37° C. and 5% CO2. The intracellular content of ATP was determined using the test reagent CellTiterGlo (Promega).

[2] = system: COLO 205 (ATCC No. CCL-222) tumor cell line; test: Cell proliferation test (intracellular ATP, CellTiterGlo) on COLO 205; format: cell-based; conditions: read-out: Activity in a cell proliferation test, expressed as TC50 value, Colo 205
Experimental: as §1, §2, §3
Medium for COLO 205: RPMI 1640 (Gibco), L-glutamine (1%, Gibco), HEPES (1%, Gibco), fetal calf serum (10%, PAA).
as §4

[3] = system: eukaryotic cells, nematodes and bacteria; conditions: Adamczewski et al., J. Org. Chem. 1986; cited from earlier work
[4] = system: cell proliferation; conditions: stops cell division at the G1/S restriction point and in the G2/M phase; cited from earlier work
[5] = Colo 205, 72 hours incubation, ATP content, tested at 0.3-40 μM

In the case of `CCC(C)/C=C/C(O)C(O)C(O)[C@@H](OC)C(=O)N[C@H]1CCCCN(C)C1=O` (stereo partly shown) [(III)], the TC50 (50% inhibition of cell proliferation) ([1]; Homo sapiens, HepG2, 72 h) is reported as 9 µM and the CC50 ([2]; Homo sapiens, COLO 205, 72 h) is reported as 15 µM.

In the case of `CCC(C)/C=C/C(O)C(O)C(O)[C@@H](OC)C(=O)N[C@H]1CCC(O)CNC1=O` (stereo partly shown) [(IV)], the TC50 (50% inhibition of cell proliferation) ([1]; Homo sapiens, HepG2, 72 h) is reported as > 40 µM and the CC50 [2, 5] is reported as 42 µM.

For `CCCCCCCCCCCCCC(=O)O[C@H]1CC[C@H](NC(=O)[C@H](OC)[C@H](O)[C@@H](O)[C@H](O)/C=C/C(C)C)C(=O)NC1` [Bengamide A], the “Biotoxicity to eukaryotic cells, nematodes and bacteria” value [3] is given as “biotoxic”.

For `CCCCCCCCCCCCCC(=O)O[C@H]1CC[C@H](NC(=O)[C@H](OC)[C@H](O)[C@@H](O)[C@H](O)/C=C/C(C)C)C(=O)N(C)C1` [Bengamide B], the “Biotoxicity to eukaryotic cells, nematodes and bacteria” value [3] is given as “biotoxic”.

In the case of `CO[C@@H](C(=O)N[C@H]1CCCCNC1=O)[C@H](O)[C@@H](O)[C@H](O)/C=C/C(C)C` [Bengamide E], the “Inhibition of cell proliferation” value [4] is given as “inhibits cell proliferation”, the TC50 (50% inhibition of cell proliferation) ([1]; Homo sapiens, HepG2, Hep-G2, 72 hours incubation, ATP content, tested at 0.3-40 μM) is given as 36 µM and the CC50 [2, 5] is given as 46 µM.

Work on `CO[C@@H](C(=O)N[C@H]1CCCCN(C)C1=O)[C@H](O)[C@@H](O)[C@H](O)/C=C/C(C)C` [Bengamide F] yielded a TC50 (50% inhibition of cell proliferation) ([1]; Hep-G2, 72 hours incubation, ATP content, tested at 0.3-40 μM) of 27 µM and a CC50 [2, 5] of 33 µM.

With `CCC(C)/C=C/C(O)C(O)C(O)[C@@H](OC)C(=O)N[C@H]1CCCCNC1=O` (stereo partly shown) [Compound (II)] the TC50 (50% inhibition of cell proliferation) ([1]; Homo sapiens, HepG2, 72 h) was 16 µM and the CC50 ([2]; Homo sapiens, COLO 205, 72 h) was 27 µM.
